Where a SMILES comes first, the peptide text is derived from it. The star is where a group is joined. Cbz = O=C(OCc1ccccc1)*; OtBu = CC(C)(C)O*
Columns and labels:
ICAM-1 (CD54) = assay: Surface expression of ICAM-1 (CD54) on HELF by flow cytometric analysis; assay type: cell-based, human; settings: GCV for comparison; AD169 m.o.i.=1
Procedure: Next, we wondered whether MG132 is able to reduce the immune modulatory activity of HCMV. Therefore we measured the levels of extracellular IL-6, IL-8, and RANTES in the supernatants of mock-infected and AD-169-infected HELF (m.o.i. =1) following culture in the presence or absence of increasing amounts of MG132. In parallel, surface expression of ICAM-1 (CD54) was measured by flow cytometric analysis. As expected infection of HELF with AD 169 increased secretion of IL-6, EL-8 and RANTES (data not shown) as well as surface expression of ICAM-1 over time (FIGS. 14A and B). […]
(§1) Cell culture fluids were tested for RANTES using the ELISA KIT from R&D System, Germany, following the manufacturers instructions. […] Surface CD54 amounts were analysed using a FACScalibur analyser and cellquest software (Becton Dickinson, Germany). Data were calculated as A mean fluorescence intensities of CD54 and isotype control antibodies (=specific mean fluorescence intensity, MFI).
MG132-dependent suppression of HCMV-induced ICAM-1 surface expression Uninfected and AD169-infected HELF (m.o.i.=1) were grown in the absence or presence of MG132 or GCV and harvested 24 h (A) or 48 h (B) p.i. for surface ICAM-1 measurement by flowcytometric analysis. The specific MFI of uninfected and untreated control HELF was calculated as 100%. […]

HL-60 cells = assay: Cytotoxic effects on HL-60 cells; assay type: cell-based; settings: at 0.5 and 0.1 μg/ml
Procedure: (§2) Granulocyte/monocyte progenitor like HL-60 cells (ACC CCL 240) were grown in RPMI 1640 medium supplemented with 10% foetal calf serum (FCS, both from Biochrom, Germany and certified to be endotoxin free). Permissive human embryonal lung fibroblasts (HELF) were grown as monolayer in Dulbecco's modified Eagle's medium (BioWhittaker Europa, Belgium) containing 2.0% FCS. Virus stocks of HCMV strain AD169. of laboratory-derived ganciclovir (GCV)-resistant viruses XbaF 4-3-1 and 1117′ 3-1-2 (both are kindly provided from K. K. Biron, Burroughs Wellcome Colo.), HSV 1, strain K, and HSV 2, strain DG (both are patients isolates from the strain collection of this institute) were prepared from the supernatant of infected cell cultures and stored in liquid nitrogen. For standard plaque reduction assays as well as for experiments with immunoblot analysis HELF were seeded into 25 cm^2 cell culture flasks. For preparation of cytosolic and nuclear extracts cells were seeded into 100 cm^2 culture flasks. Generally, confluent monolayers were infected at an multiplicity of infection (m.o.i.) of 0.0002 for standard plaque reduction assay and a m.o.i. of 1 for immunoblot analysis, for preparation of cytosolic and nuclear extracts as well as for measurement of cytokine, chemokine and adhesion molecules in cell culture supernatant. […]

IL-6 = assay: Extracellular IL-6 in supernatants of AD169-infected HELF (ELISA); assay type: cell-based, human; settings: increasing amounts; data not shown
Procedure: (§3) Next, we wondered whether MG132 is able to reduce the immune modulatory activity of HCMV. Therefore we measured the levels of extracellular IL-6, IL-8, and RANTES in the supernatants of mock-infected and AD-169-infected HELF (m.o.i. =1) following culture in the presence or absence of increasing amounts of MG132. In parallel, surface expression of ICAM-1 (CD54) was measured by flow cytometric analysis. As expected infection of HELF with AD 169 increased secretion of IL-6, EL-8 and RANTES (data not shown) as well as surface expression of ICAM-1 over time (FIGS. 14A and B). While virus-induced secretion of IL-6, IL-8, and RANTES was not inhibited by the proteasome inhibitor, but, in some experiments even increased (data not shown), virus-induced surface expression of ICAM-1 was prevented (FIG. 14). […] For comparison, GCV had no influence on virus-induced ICAM-1 expression, but rather sustained its density on the cell surface (FIG. 14, last columns).
(§4) For measurement of IL-6 and EL-8 cell culture supernatants were collected from mock-infected and AD169-infected HELF cultivated in the presence or absence of MG132 or GCV (m.o.i.=1) immediately after adsorption of the virus (day 0) as well as at day 1, 2, 3 and 5 p.i. and tested for IL-6 and EL-8 by Immulite™ semiautomatic. ELISA analysis as described by the manufacturer (DPC Biermann, Germany).

HCMV AD169 = HCMV AD169 replication in human embryonal lung fibroblasts (CPE / IE staining, day 5 p.i.); assay type: cell-based, human cytomegalovirus
Excerpt: Human embryonal lung fibroblasts (HELF), one of the target cells of HCMV in vivo, are fully permissive for HCMV replication in vitro. For infection experiments the laboratory adapted strain AD169 was propagated on HELFs. Virus stocks prepared from the overlay of infected cells showing 100% cytopathic effect (CPE) by ultra centrifugation were stored in liquid N2. Confluent HELF monolayer in 50 cm^2 flasks were infected with AD169 at a multiplicity of infection (M.O.I.) of 0.01. Adsorption of the virus was allowed for 1 hour at 37° C. After that the monolayer was overlayed with MEM containing 4.5% FCS. Medium was free of or substituted with the proteasome inhibitor at the indicated concentration. Virus cultures were cultivated for 5 days without changing the medium. On day five p.i. virus replication, was quantified by the number of CPE visible in inverse light microscope. For quantification cells were stained with an HCMV-specific antibody recognising the IE proteins IE1 and IE2 (clone E13, Harlan Sera-tab, Loughborough, GB, 1:5000), goat anti-mouse HRP-conjugated IgG (1:4000; Boehringer Mannheim, Indianapolis, Ind., USA) as secondary antibody and the AEC staining kit (Sigma, Germany) which gives a reed nuclear staining of infected cells.
Granulocyte/monocyte progenitor like HL-60 cells (ACC CCL 240) were grown in RPMI 1640 medium supplemented with 10% foetal calf serum (FCS, both from Biochrom, Germany and certified to be endotoxin free). Permissive human embryonal lung fibroblasts (HELF) were grown as monolayer in Dulbecco's modified Eagle's medium (BioWhittaker Europa, Belgium) containing 2.0% FCS. Virus stocks of HCMV strain AD169. of laboratory-derived ganciclovir (GCV)-resistant viruses XbaF 4-3-1 and 1117′ 3-1-2 (both are kindly provided from K. K. Biron, Burroughs Wellcome Colo.), HSV 1, strain K, and HSV 2, strain DG (both are patients isolates from the strain collection of this institute) were prepared from the supernatant of infected cell cultures and stored in liquid nitrogen. […]

IL-8 = assay: Extracellular IL-8 in supernatants of AD169-infected HELF (ELISA); assay type: cell-based, human; settings: increasing amounts; data not shown
Procedure: as §3, §4

HSV1 strain K = assay: HSV1 replication in HELF (CPE count); assay type: cell-based, Herpes Simplex Type 1; settings: 0.2 to 0.01 μg/ml (0.42 to 0.021 μM)
Procedure: (§5) Confluente HELF monolayers in 24 well tissue culture plates were infected with HSV1 strain K or HSV2 at a M.O.I. of 0.001. Virus adsorption was allowed for 1 h at 37° C. After removing the viral inoculate, cells were overlayed with MEM/E, 1% Methocel and incubated for two days at 37° C. in a 5% CO2 atmosphere. MG-132 at the indicated concentrations was added into the medium after adsorption. CPEs were quantified by light microscopy. MG132 had no effect on HSV1 (FIG. 6) and HSV2 (not shown) replication in HELF.

HSV2 = HSV2 replication in HELF (CPE count); assay type: cell-based, Herpes Simplex Type 2; settings: not shown
Procedure: as §5

HELF = assay: Toxicity for HELFs; assay type: cell-based, human; settings: 0.2 μg/ml
Procedure: as §2

[1] = test system: HCMV IE1/2 enhancer/promoter; assay: TNFα stimulation / basal activity of the HCMV IE1/2 enhancer/promoter, CAT reporter (pRR55) in HL-60 cells; assay type: cell-based, HCMV strain Ad169; settings: for influence on TNFα stimulation of the IE1/2 enhancer/promoter (in words): HL-60, HCMV AD169 promoter
Procedure: As a model for undifferentiated monocyte/granulocyte progenitor cells HL-60, cells (ATCC No. CCL 240) expressing high levels of CD34+ but low levels of typical differentiation antigens like CD11a-c and CD14 on their surface were used. Furthermore, HL-60 cells have retained the ability, to differentiate into granulocytes and monocytes depending on the stimulus. HL-60 cells were grown in RPMI 1640 medium supplemented with 10% fetal calf serum (both certified endotoxin-free, Biochrome, Germany) at 37° C. in a 5% humidified atmosphere. […] The cells were grown up to 1×10^6 cells per ml. HL-60 cells were transiently transfected with the plasmid pRR55 containing the native HCMV strain Ad169 IE1/2 enhancer/promoter region between nucleotides […] and +52 relative to the transcription start site upstream of the chloramphenicol acetyl transferase (CAT) reporter gene (Fickenscher et al., 1989). Plasmid DNA was prepared using the endofree Maxi Kit (QUIAGEN, Germany or Machery & Nagel, Germany) and stored in aliquots at −20° C. Transient transfection was performed using the DEAE transfection protocol (Stein et al., 1993). Per transfection reaction 5×10^5 cells were washed once with FCS-free medium and then resuspendend in 250 μl transfection buffer containing 1×TBS (24 mM Tris-HCl, pH 7.4, 137 mM NaCl, 5 mM KCl, 0.7 mM CaCl2, 0.5 mM MgCl2, 0.6 mM Na2HPO4), 2.5 μg plasmid DNA (1 μg/μl ) and 5 mg/ml DEAE dextran (Pharmacia-Amersham, Germany). To avoid differences in transfection efficiency, cells for parallel probes were transfected in one reaction and splitted after transfection. Transfection occurred for 1 h at 37° C. After that the cells were washed once with FCS-free RPMI 1640 medium and resuspended in medium containing 10% FCS at a concentration of 5×10^5 cells/5 ml. MG-132 (Calbiochemie, Germany) was dissolved in ethanol (5 μg/μl) and stored in aliqotes at −20 ° C. MG-132 was added into the medium at time zero after transfection and 1 h before TNFα (5 ng/ml, human recombinant TNFα; PAN, Germany, stored in aliquots containing 10 μg/μl at −80° C.). The cells were harvested 48 h after transfection, washed once with PBS and resuspended in 70 μl CAT buffer 1 (0.25 M Tris/HCl, pH 7.8, 0.5 mM EDTA). After 10 min of incubation on ice, cell extracts were prepared by repeated frozen/thawing of the cells (routinely 5 times), 10 min incubation at 65 ° C. to inactivate isoenzymes. Cell debris was removed by centrifugation at 12000 rpm for 10 min in an Eppendorf centrifuge. Cell extracts were measured for their protein concentrations using the method of Bradford (Bradford, 1976) and Bradford reagent (Sigma, Germany). Equal quantities of protein were used in the CAT-assay as described by Gorman et al., 1982. 20 μl lysates were incubated with [^14C]chloramphenicol (Hartman Analytic, Germany) and acetyl-CoA (Sigma, Germany) at 37° C. Reaction was stopped by extraction with ethylacetat (Merck, Germany). The acetylated products were quantified after separation by thin-layer chromatography using a thin layer scintillator. […] In the presence of 0.1 μg/ml MG-132 reduced TNFα stimulation by 50% (FIG. 1).
The reporter gene plasmid pRR55 contains the whole HCMV IE1/2 enhancer/promoter region between nucleotides +52 and −637 with respect to the IE1 transcriptions start site, upstream of the chloramphenicol acetyltransferase (CAT) gene [Fickenscher H, Stamminger T, Riiger R & Fleckenstein B. The role of a repetetive palindrormic sequence element in the human cytomegalovirus major immediate early enhancer. J Gen Virol 1989; 70:107-123.]. The plasmid was kindly provided by T. Stamminger (Eriangen, Germany). For transient transfection of HL-60 cells we used the DEAE dextran method as described earlier [Stein J, Volk H D, Liebenthal C, Kruger D H & Prosch S. Tumor necrosis factor alpha stimulates the activity of the human cytomegalovirus major immediate early enhancer/promoter in immature monocytic cells. J Gen Virol 1993; 74:2333-2338]. […]

RANTES = assay: Extracellular RANTES in supernatants of AD169-infected HELF (ELISA); assay type: cell-based, human; settings: increasing amounts; data not shown
Procedure: as §3, §1

Nc1nc(O)c2ncn(COC(CO)CO)c2n1 [GCV, Ganciclovir]
influence on virus-induced ICAM-1 expression (ICAM-1 (CD54)): no influence

CC(C)C[C@@H](C=O)NC(=O)[C@H](CC(C)C)NC(=O)[C@H](CC(C)C)NC(=O)OCc1ccccc1 [MG-132, N-carbobenzoxy-L-leucinyl-L-leucinyl-L-leucinal] (Cbz-Leu-Leu-Leu-aldehyde)
cytotoxic effects on HL-60 cells (HL-60 cells): no cytotoxic effects | virus-induced secretion of IL-6 (IL-6): not inhibited | effect on virus replication (HCMV AD169; 0.01 μg/ml (0.016 μM), AD169, HELF): no effect | number of IE-positive cells per foci compared with the untreated control (HCMV AD169; 0.1 μg/ml (0.21 μM)): about 50% | number of virus-infected (IE-positive) cells per focus (HCMV AD169; 0.2 μg/ml (0.42 μM), untreated 50): 7 cells | virus-induced secretion of IL-8 (IL-8): not inhibited | effect on HSV1 replication in HELF (HSV1 strain K): no effect | effect on HSV2 replication in HELF (HSV2): no effect | toxicity for HELFs (HELF): non-toxic | reduction of TNFα stimulation ([1]; 0.1 μg/ml, HL-60, TNFα 5 ng/ml): 50% | decrease of TNFa-mediated stimulation ([1]; 0.8 μM, HL-60): about 80% | concentrations that inhibit basic, TNFα-independent activity of the IE1/2 enhancer/promoter ([1]; HL-60, without TNFα): above 0.5 μg/ml | virus-induced secretion of RANTES (RANTES): not inhibited

CC(C)C[C@H](NC(=O)OCc1ccccc1)C(=O)N[C@@H](CC(C)C)C(=O)N[C@H](C=O)Cc1ccccc1 [PS-2, Z-Leu-Leu-Phe-CHO] (Cbz-Leu-Leu-Phe-aldehyde)
influence on TNFα stimulation of the IE1/2 enhancer/promoter (in words) [1]: reduce TNFα stimulation in a concentration-dependent manner

Cbz-IE(OtBu)AL-aldehyde [PS-1]
decrease of TNFα stimulation ([1]; 0.5 to 0.1 μg/ml (0.81 to 0.16 μM), HL-60): about 60% | influence on TNFα stimulation of the IE1/2 enhancer/promoter (in words) [1]: reduce TNFα stimulation in a concentration-dependent manner

N-carbobenzoxy-L-leucinyl-L-leucinyl-L-leucinal [MG-132]
influence on TNFα stimulation of the IE1/2 enhancer/promoter (in words) [1]: decreased TNFα stimulation of the IE1/2 enhancer/promoter in a concentration-dependent manner

— patent US20070042967A1, “Proteaseome inhibitors for the treatment of herpesviridae infected individuals” (priority 2002, published 2007)
